What was measured:
Methionine--tRNA ligase [1] = target: T1, Methionine--tRNA ligase (Staphylococcus aureus (strain Mu50 / ATCC 700699), UniProt P67578); experiment: Binding affinity to Staphylococcus aureus MetRS expressed in Escherichia coli BL21(DE3) cells assessed as dissociation constant in presence of 1 mM ATP by ITC analysis
Methionine--tRNA ligase [2] = target: T1, Methionine--tRNA ligase; experiment: Binding affinity to Staphylococcus aureus MetRS expressed in Escherichia coli BL21(DE3) cells assessed as dissociation constant in presence of 50 uM ATP by ITC analysis
Methionine--tRNA ligase [3] = target: T2, Methionine--tRNA ligase (Enterococcus faecalis, UniProt A0A3N3ZFK4); experiment: Binding affinity to Enterococcus faecalis type 1 MetRS expressed in Escherichia coli BL21(DE3) cells assessed as dissociation constant in presence of 1 mM ATP by ITC analysis
T2 sequence (A0A3N3ZFK4 whole entry): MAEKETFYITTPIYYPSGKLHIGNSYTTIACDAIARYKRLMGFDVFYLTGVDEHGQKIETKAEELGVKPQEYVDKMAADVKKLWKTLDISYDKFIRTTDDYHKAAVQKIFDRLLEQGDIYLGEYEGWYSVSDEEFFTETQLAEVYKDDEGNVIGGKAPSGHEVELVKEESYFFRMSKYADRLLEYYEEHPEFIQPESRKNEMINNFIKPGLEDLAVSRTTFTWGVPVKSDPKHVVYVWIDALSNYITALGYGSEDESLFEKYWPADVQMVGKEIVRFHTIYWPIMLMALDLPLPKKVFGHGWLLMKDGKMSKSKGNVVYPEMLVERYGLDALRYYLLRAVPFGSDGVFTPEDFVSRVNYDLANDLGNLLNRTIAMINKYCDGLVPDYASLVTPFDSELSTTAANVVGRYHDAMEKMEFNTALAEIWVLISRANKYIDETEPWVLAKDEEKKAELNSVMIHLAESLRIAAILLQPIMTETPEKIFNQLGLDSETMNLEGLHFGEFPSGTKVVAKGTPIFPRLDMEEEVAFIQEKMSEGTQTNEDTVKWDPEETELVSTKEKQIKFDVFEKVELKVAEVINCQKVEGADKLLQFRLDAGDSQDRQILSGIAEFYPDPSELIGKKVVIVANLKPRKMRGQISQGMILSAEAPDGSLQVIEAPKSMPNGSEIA

Methionine--tRNA ligase [4] = target: T1, Methionine--tRNA ligase; experiment: Binding affinity to Staphylococcus aureus MetRS expressed in Escherichia coli BL21(DE3) cells assessed as dissociation constant by ITC analysis
Methionine--tRNA ligase [5] = target: T1, Methionine--tRNA ligase; experiment: Inhibition of Staphylococcus aureus MetRS expressed in Escherichia coli BL21(DE3) cells measured after 2.5 hrs in presence of ATP by pre-transfer editing assay
Methionine--tRNA ligase [6] = target: T1, Methionine--tRNA ligase; experiment: Binding affinity to Staphylococcus aureus MetRS expressed in Escherichia coli BL21(DE3) cells assessed as dissociation constant in presence of 20 uM ATP by ITC analysis
Methionine--tRNA ligase [7] = target: T2, Methionine--tRNA ligase; experiment: Inhibition of Enterococcus faecalis type 1 MetRS expressed in Escherichia coli BL21(DE3) cells measured after 1.5 hrs in presence of ATP by pre-transfer editing assay
Methionine--tRNA ligase [8] = target: T2, Methionine--tRNA ligase; experiment: Binding affinity to Enterococcus faecalis type 1 MetRS expressed in Escherichia coli BL21(DE3) cells assessed as dissociation constant by ITC analysis
[9] = target: Methionine--tRNA ligase (Staphylococcus aureus (strain Mu50 / ATCC 700699)) (UniProt P67578); experiment: Binding affinity to Staphylococcus aureus MetRS expressed in Escherichia coli BL21(DE3) cells assessed as change in melting temperature at 100 uM incubated for 10 mins followed by heat treatment by SYPRO orange dye based TSA (reference value: 53.7 degreeC)
Methionine--tRNA ligase (Staphylococcus aureus (strain Mu50 / ATCC 700699)), sequence (P67578 whole entry): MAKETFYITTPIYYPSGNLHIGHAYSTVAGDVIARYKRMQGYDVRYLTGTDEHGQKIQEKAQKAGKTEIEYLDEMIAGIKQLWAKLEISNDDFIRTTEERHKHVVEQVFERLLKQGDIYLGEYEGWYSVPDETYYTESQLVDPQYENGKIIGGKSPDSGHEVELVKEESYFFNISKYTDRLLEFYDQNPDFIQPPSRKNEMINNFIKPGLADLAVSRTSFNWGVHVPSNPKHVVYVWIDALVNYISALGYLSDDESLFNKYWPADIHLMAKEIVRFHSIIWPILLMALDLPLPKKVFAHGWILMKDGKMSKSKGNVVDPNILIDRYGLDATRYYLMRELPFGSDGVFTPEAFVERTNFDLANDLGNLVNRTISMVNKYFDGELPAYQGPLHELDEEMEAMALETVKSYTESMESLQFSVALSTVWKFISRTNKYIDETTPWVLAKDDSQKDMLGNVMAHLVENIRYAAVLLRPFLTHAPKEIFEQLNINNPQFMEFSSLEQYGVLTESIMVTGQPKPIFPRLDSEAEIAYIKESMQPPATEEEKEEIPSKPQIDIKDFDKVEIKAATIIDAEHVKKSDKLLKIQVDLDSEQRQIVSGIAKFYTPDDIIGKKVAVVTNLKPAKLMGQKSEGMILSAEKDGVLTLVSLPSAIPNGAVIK

[10] = target: Methionine--tRNA ligase (Staphylococcus aureus (strain Mu50 / ATCC 700699)) (UniProt P67578); experiment: Binding affinity to Staphylococcus aureus MetRS expressed in Escherichia coli BL21(DE3) cells assessed as change in melting temperature at 100 uM incubated for 10 mins followed by heat treatment in presence of 2 mM ATP by SYPRO orange dye based TSA (reference value: 56.4 degreeC)
[11] = target: Methionine--tRNA ligase (Staphylococcus aureus (strain Mu50 / ATCC 700699)) (UniProt P67578); experiment: Inhibition of Staphylococcus aureus MetRS expressed in Escherichia coli BL21(DE3) cells at 100 uM measured after 2.5 hrs in presence of ATP by pre-transfer editing assay relative to control

T1 sequence (P67578 whole entry): as above

SMILES | Kd (Methionine--tRNA ligase [1]) [nM] | Kd (Methionine--tRNA ligase [2]) [nM] | Kd (Methionine--tRNA ligase [3]) [nM] | Kd (Methionine--tRNA ligase [4]) [nM] | IC50 (Methionine--tRNA ligase [5]) [nM] | Kd (Methionine--tRNA ligase [6]) [nM] | IC50 (Methionine--tRNA ligase [7]) [nM] | Kd (Methionine--tRNA ligase [8]) [nM] | ΔTm [9] [°C] | ΔTm [10] [°C] | inhibition [11] [%]
[H]/N=C(/NCCCCN/C(=N/[H])N/C(=N/[H])Nc1ccc(Cl)cc1)N/C(=N/[H])Nc1ccc(Cl)cc1 | 452 | 493 | 150 | 4920 | 17300 | 1370 | 16100 | 2700 |  |  | 
C=C(F)c1sc(CNCCCNc2cc(=O)c3ccccc3[nH]2)c(C)c1Br |  |  |  |  |  |  |  |  | 16.2 | 20.3 | > 99
CCN(CC)CCCC(C)Nc1ccnc2cc(Cl)ccc12 (configuration not stated) |  |  |  |  |  |  |  |  | -0.1 | 1.1 | < 20
COc1cc(Nc2c(C#N)cnc3cc(OCCCN4CCN(C)CC4)c(OC)cc23)c(Cl)cc1Cl |  |  |  |  |  |  |  |  | 0.5 | 2.1 | 32.7

— ChEMBL document CHEMBL5506005, “Biochemical and structural characterization of chlorhexidine as an ATP-assisted inhibitor against type 1 methionyl-tRNA synthetase from Gram-positive bacteria” (Eur J Med Chem, 2024)
